Columns and labels:
[1] = Stability in GSH environment; assay type: physicochemical; conditions: 20 mM GSH, pH 7.4 phosphate buffer, 37 °C
[2] = Transmission electron microscopy; assay type: physicochemical; conditions: for micelle formation (TEM): 50.0 μM, pH 7.4 phosphate buffer
[3] = for decomposition in SGF: 37 °C, within 120 min
AdV5 = assay type: cell-based, adenovirus (AdV) 5; conditions: A549 cells

Row | Compound | stability in GSH environment relative to 1c [1] | micelle formation (TEM) [2] | other results
1 | CCCCCCCCCCCCCCCCCCSSCCOP(=O)(O)CO[C@H](CO)Cn1ccc(N)nc1=O.N [Compound 1e, 2-(octadecyldisulfanyl)ethyl hydrogen ((((S)-1-(4-amino-2-oxopyrimidin-1(2H)-yl)-3-hydroxypropan-2-yl)oxy)methyl)phosphonate] | significant enhancement in stability | could form micelles | stability of micelles in GSH environment (TEM) ([2]; incubated for 4 h in GSH environment): could keep stable
2 | CCCCCCCCSSCCCCCCOP(=O)(O)CO[C@H](CO)Cn1ccc(N)nc1=O.N [Compound 1o, 6-(octyldisulfanyl)hexyl hydrogen ((((S)-1-(4-amino-2-oxopyrimidin-1(2H)-yl)-3-hydroxypropan-2-yl)oxy)methyl)phosphonate] | – | – | TI (therapeutic index, CC50/IC50) (VACV): >4
3 | CCCCCCCCCCCCSSCCCCCCOP(=O)(O)CO[C@H](CO)Cn1ccc(N)nc1=O.N [Compound 1q, 6-(dodecyldisulfanyl)hexyl hydrogen ((((S)-1-(4-amino-2-oxopyrimidin-1(2H)-yl)-3-hydroxypropan-2-yl)oxy)methyl)phosphonate] | – | – | decomposition in SGF [3]: not decomposed; fold increase in TI value compared to BCV (anti-AdV5) (AdV5): 8.9 fold
4 | CCCCCCCCCCCCCCSSCCCCOP(=O)(O)CO[C@H](CO)Cn1ccc(N)nc1=O.N [Compound 1m, 4-(tetradecyldisulfanyl)butyl hydrogen ((((S)-1-(4-amino-2-oxopyrimidin-1(2H)-yl)-3-hydroxypropan-2-yl)oxy)methyl)phosphonate] | significant enhancement in stability | – | –
5 | CCCCCCCCCCCCCCSSCCOP(=O)(O)CO[C@H](CO)Cn1ccc(N)nc1=O.N [Compound 1c, 2-(tetradecyldisulfanyl)ethyl hydrogen ((((S)-1-(4-amino-2-oxopyrimidin-1(2H)-yl)-3-hydroxypropan-2-yl)oxy)methyl)phosphonate] | – | could form micelles | fold TI relative to BCV (VACV): 2.8 fold; remaining after incubation with GSH ([1]; after 360 min): approximately 13%; remaining in SGF ([3]; SGF pH 2.0, 37 °C, after 120 min): approximately 77%
6 | CCCCCCCCCCCCCCSSCCCCCCOP(=O)(O)CO[C@H](CO)Cn1ccc(N)nc1=O.N [Compound 1r, 6-(tetradecyldisulfanyl)hexyl hydrogen ((((S)-1-(4-amino-2-oxopyrimidin-1(2H)-yl)-3-hydroxypropan-2-yl)oxy)methyl)phosphonate] | significant enhancement in stability | could form micelles | –
7 | CCCCCCCCCCCCCCSSCCCOP(=O)(O)CO[C@H](CO)Cn1ccc(N)nc1=O.N [Compound 1h, 3-(tetradecyldisulfanyl)propyl hydrogen ((((S)-1-(4-amino-2-oxopyrimidin-1(2H)-yl)-3-hydroxypropan-2-yl)oxy)methyl)phosphonate] | significant enhancement in stability | – | –
8 | CCCCCCCCCCCCCCCCSSCCCCOP(=O)(O)CO[C@H](CO)Cn1ccc(N)nc1=O.N [Compound 1n, 4-(hexadecyldisulfanyl)butyl hydrogen ((((S)-1-(4-amino-2-oxopyrimidin-1(2H)-yl)-3-hydroxypropan-2-yl)oxy)methyl)phosphonate] | – | could form micelles | decomposition in SGF [3]: not decomposed
9 | CCCCCCCCCCCCCCCCSSCCOP(=O)(O)CO[C@H](CO)Cn1ccc(N)nc1=O.N [Compound 1d, 2-(hexadecyldisulfanyl)ethyl hydrogen ((((S)-1-(4-amino-2-oxopyrimidin-1(2H)-yl)-3-hydroxylpropan-2-yl)oxy)methyl)phosphonate] | significant enhancement in stability | could form micelles | –

Source: paper PMC10290961 (European Journal of Medicinal Chemistry, 2023)
